Test results: patent US20220227765A1, “PYRIDO-INDOLE ANALOGUES AS GPX4 INHIBITORS” (Ferro Therapeutics, Inc., priority 2019, published 2022)
In brackets after ≈: the same amount, converted by molar mass. Where two headings read alike, the source gives them in different places.

Columns and labels:
[1] = test system: 786-O; assay: Cell proliferation (Alamar Blue) assay, 786-O; type: cell-based, human; conditions: Homo sapiens, 786-0, 24 h, Table B-3, 786-O cells
Procedure, shortened: (§1)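 Cells were seeded at 5000 cells/well and grown 16-24 h at 37° C./5% CO2. They were treated 24 h with compound at 10-0.0005 μM (3-fold dilutions, 1% DMSO). Viability was read by Alamar Blue fluorescence (ex 540/em 590 nm) after 1.5 h, and IC50 came from a variable-slope sigmoidal fit.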

[2] = test system: A431; assay: Cell proliferation (Alamar Blue) assay, A431; type: cell-based, human; conditions: Homo sapiens, A-431, 24 h, Table B-3, A431 cells
Procedure, shortened: as §1

[3] = Mouse plasma protein % unbound (ultracentrifuge method); type: in vitro ADME; conditions: for fraction unbound at 4 h: mouse, plasma, Table B-6, 4 h at 37° C.; for Mouse Plasma Protein % Unbound (Ultracentrifuge method, 4 h at 37° C.): Table B-6
[4] = CD-1 Mouse Whole Blood Stability Assay; type: in vitro ADME; conditions: Table B-6, incubation at 37° C.
[5] = test system: SJSA-1; assay: Cell proliferation (Alamar Blue) assay, SJSA-1; type: cell-based, human; conditions: Homo sapiens, SJSA-1, 24 h, Table B-3, head prints SJSB-1, 24 h, read-out: IC50 (μM) SJSB-1
Procedure, shortened: as §1

[6] = Kinetic solubility (PBS, pH 7.4); type: physicochemical; conditions: aqueous buffer, kinetic from dmso stock
[7] = Human blood stability; type: in vitro ADME
[8] = Equilibrium solubility at different pHs and with SBECD; type: physicochemical; conditions: thermodynamic from solid
[9] = Human hepatocyte metabolic stability; type: in vitro ADME
[10] = Rat hepatocyte metabolic stability; type: in vitro ADME
[11] = aqueous buffer, pH 3.0, read-out: Eq. solubility pH 3.0
[12] = aqueous buffer, pH 3.0 PBS buffer, read-out: Eq. solubility pH 3.0 PBS buffer
[13] = aqueous with cosolvent or surfactant or cyclodextrin, 20% SBECD (sulfobutyl ether cyclodextrin), read-out: Eq. solubility 20% SBECD

Structure (SMILES)	IC50 [1] [µM]	IC50 [2] [µM]	fraction unbound at 4 h [3]	CD-1 Mouse Whole Blood Stability % Remaining ([4]; 0 min) [%]	CD-1 Mouse Whole Blood Stability % Remaining ([4]; 30 min) [%]	CD-1 Mouse Whole Blood Stability % Remaining ([4]; 60 min) [%]	IC50 [5] [µM]	Mouse Plasma Protein % Unbound (Ultracentrifuge method, 4 h at 37° C.) [3]	further results
C#CC(=O)N1[C@@H](CCCC)Cc2c([nH]c3c(F)cc(F)cc23)[C@@H]1C12CC(N)(C1)C2.Cl [Compound B-22]	0.031	5.3	0.037	100.0	70.3	55.0	0.047	–	–
C#CC(=O)N1[C@@H](CCCC)Cc2c([nH]c3c(F)cc(F)cc23)[C@@H]1C1CCNCC1.Cl [Compound B-26]	0.177	7.5	0.061	100.0	44.7	26.7	0.08	–	–
CCCC[C@H]1Cc2c([nH]c3c(F)cc(F)cc23)[C@H](c2ccc(N3CCN(C)CC3)c(C#N)c2)N1C(=O)CCl [Compound B-27]	0.005	2	0.078	100.0	78.0	72.7	0.005	–	solubility kinetic ([6]; Table B-4): < 1 µM; human blood stability % remaining ([7]; 15 min): 38%_15; human blood stability % remaining ([7]; 30 min): 4%_30; human blood stability % remaining ([7]; 45 min): 1%_45; human blood stability % remaining ([7]; 60 min): 0%_60; human blood stability % remaining ([7]; 120 min): 0%_120

Continued, in another order:

IC50 [1] [µM]	IC50 [2] [µM]	fraction unbound at 4 h [3]	CD-1 Mouse Whole Blood Stability % Remaining ([4]; 0 min) [%]	CD-1 Mouse Whole Blood Stability % Remaining ([4]; 30 min) [%]	CD-1 Mouse Whole Blood Stability % Remaining ([4]; 60 min) [%]	IC50 [5] [µM]	Mouse Plasma Protein % Unbound (Ultracentrifuge method, 4 h at 37° C.) [3]	Structure (SMILES)	further results
0.507	> 10	–	100.0	4.0	0.5	0.431	Not stable	C#CC(=O)N1[C@@H](CCCC)Cc2c([nH]c3c(F)cc(F)cc23)[C@@H]1c1cncs1 [Compound B-23]	–
0.034	> 10	–	100.0	18.0	3.9	0.037	Not stable	C#CC(=O)N1[C@@H](CCCC)Cc2c([nH]c3c(F)cc(F)cc23)[C@@H]1c1ccc(C2COC2)cc1 [Compound B-29]	–
0.03	> 10	–	100.0	1.9	0.5	0.052	Not stable	C#CC(=O)N1[C@@H](CCCC)Cc2c([nH]c3c(F)cc(F)cc23)[C@@H]1c1cccnc1 [Compound B-30]	solubility [8, 11]: 700 µg/mL (≈ 1780 µM); solubility [8, 12]: 490 µg/mL (≈ 1250 µM); solubility [8, 13]: 240 µg/mL (≈ 610 µM); solubility kinetic ([6]; Table B-7): < 1 µM
0.009	6.6	–	100.0	2.1	0.2	0.011	Not stable	C#CC(=O)N1[C@@H](CCCC)Cc2c([nH]c3c(F)cc(F)cc23)[C@@H]1c1ccccn1 [Compound B-31]	solubility [8, 11]: 15 µg/mL (≈ 38.1 µM); solubility [8, 12]: 4 µg/mL (≈ 10.2 µM); solubility [8, 13]: 47 µg/mL (≈ 119 µM); human hepatocytes extr. Ratio [9]: 0.93; human hepatocytes % met @ 180 min ([9]; 180 min): 97%; half-life ([9]; human hepatocytes, read-out: human hepatocytes T1/2): 28 min; hepatocyte CLint ([9]; human hepatocytes, read-out: human hepatocytes h Clintr (μL/min/10^6 cells)): 99 µL/min/1e6 cells; solubility kinetic ([6]; Table B-4): 3 µM (≈ 1.18 µg/mL); rat hepatocytes extr. Ratio [10]: 0.94; rat hepatocytes % met @ 180 min ([10]; 180 min): 100%; half-life ([10]; rat hepatocytes, read-out: rat hepatocytes T1/2): 16 min; hepatocyte CLint ([10]; rat hepatocytes, read-out: rat hepatocytes h Clintr (μL/min/10^6 cells)): 174 µL/min/1e6 cells; human blood stability % remaining ([7]; 15 min): 9.7%_15; human blood stability % remaining ([7]; 30 min): 0%_30; human blood stability % remaining ([7]; 45 min): 0%_45; human blood stability % remaining ([7]; 60 min): 0%_60; human blood stability % remaining ([7]; 120 min): 0%_120
